Experimental data from patent US6569891B1, “Antihypertensive compound from Caesalpinia brasiliensis” (Brigham Young University, priority 2002, dated 2003).

Legend:
[1] = test system: hypertensive Sprague-Dawley rats; experiment: antihypertensive activity, sample in drinking water of hypertensive rats, tail cuff systolic blood pressure; format: in vivo; settings: 100 μg/ml in drinking water, after 36 hours; for reduction in systolic blood pressure: tail cuff
Method: The crude extract and HPLC fractions prepared according to the procedure of Example 1 (with a preparative-scale (21.4×250 mm) column), were tested for antihypertensive activity by adding the sample to be tested at a concentration of 100 μg/ml to the drinking water of hypertensive Sprague-Dawley rats. After 36 hours, systolic blood pressures were measured with a Harvard tail cuff apparatus attached to a Beckman R511A recorder.

[2] = conversion of brazilin in hot water; format: physicochemical

| SMILES | reduction in systolic blood pressure [1] | systolic blood pressure after treatment ([1]; brought into the normal range) | stability in hot water [2] |
| --- | --- | --- | --- |
| Oc1cc2c(cc1O)C1c3ccc(O)c(O)c3OCC1(O)C2 (single isomer, unassigned) [Peak B, haematoxylin] | ~12% | – | – |
| Oc1cc2c(cc1O)C13c4ccc(O)c(O)c4OCC1(C2)OC1(O)CC=C2CC4(O)COc5c(ccc(O)c5O)C4=C2C13 (single isomer, unassigned) [peak A] | about 35% | 110-120 mm Hg | – |
| Oc1ccc2c(c1)OC[C@]1(O)Cc3cc(O)c(O)cc3[C@H]21 [Brazilin, brazilin] | – | – | slowly converted to haematoxylin |
